Measured values: PubChem BioAssay AID248 (DTP/NCI, 2004)
Where “and” joins values, the source holds several entries; their conditions need not be identical. Equal entries are not always repeated. Toxic doses and inconclusive results are not listed.

Test system: L1210 leukemia ip in BDF1 mice, survival T/C
Assay: NCI In Vivo Anticancer Drug Screen. Data for tumor model L1210 Leukemia (intraperitoneal) in B6D2F1 (BDF1) mice
Conditions: endpoint: mean survival time, higher = longer survival
Summary of the method: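 Transplantable tumor model; survival measured in treated vs vehicle control mice. Value = treated/control.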

[1] = dose: 100.0 mg/kg/injection, schedule: Q01DX001 (ip), vehicle: Klucel (hydroxypropylcellulose) (HPC)
[2] = dose: 100.0 mg/kg/injection, schedule: Q01DX009 (ip), vehicle: Klucel (hydroxypropylcellulose) (HPC)
[3] = dose: 100.0 mg/kg/injection, schedule: Q04DX003 (ip), vehicle: Klucel (hydroxypropylcellulose) (HPC)
[4] = dose: 200.0 mg/kg/injection, schedule: Q01DX001 (ip), vehicle: Klucel (hydroxypropylcellulose) (HPC)
[5] = dose: 200.0 mg/kg/injection, schedule: Q01DX009 (ip), vehicle: Klucel (hydroxypropylcellulose) (HPC)
[6] = dose: 200.0 mg/kg/injection, schedule: Q04DX003 (ip), vehicle: Klucel (hydroxypropylcellulose) (HPC)
[7] = dose: 400.0 mg/kg/injection, schedule: Q01DX001 (ip), vehicle: Klucel (hydroxypropylcellulose) (HPC)
[8] = dose: 400.0 mg/kg/injection, schedule: Q01DX009 (ip), vehicle: Klucel (hydroxypropylcellulose) (HPC)
[9] = dose: 400.0 mg/kg/injection, schedule: Q04DX003 (ip), vehicle: Klucel (hydroxypropylcellulose) (HPC)
[10] = dose: 100.0 mg/kg/injection, schedule: Q04DX003 (ip), vehicle: saline with Tween-80
[11] = dose: 200.0 mg/kg/injection, schedule: Q04DX003 (ip), vehicle: saline with Tween-80
[12] = dose: 400.0 mg/kg/injection, schedule: Q04DX003 (ip), vehicle: saline with Tween-80

## CN(C)S(=O)(=O)c1ccc(N)cc1
dose: 100.0 mg/kg/injection, schedule: Q01DX001 (ip), vehicle: other
  T/C: 91 % of control
dose: 200.0 mg/kg/injection, schedule: Q01DX001 (ip), vehicle: other
  T/C: 101 % of control
dose: 400.0 mg/kg/injection, schedule: Q01DX001 (ip), vehicle: other
  T/C: 90 % of control

## CC1C(=O)CC2C3(C)CCC2(C(C)C(=O)O)C(=O)C13 (stereo not drawn)
[1]
  T/C: 100 % of control
[2]
  T/C: 104 % of control
[3]
  T/C: 109 % of control
[4]
  T/C: 107 % of control
[5]
  T/C: 100 % of control
[6]
  T/C: 106 % of control
[7]
  T/C: 107 % of control
[8]
  T/C: 98 % of control
[9]
  T/C: 104 % of control

## CC[N+](C)(CC)CCNC(c1ccc(OC)c(OC)c1)C(Cl)(Cl)Cl (stereo not drawn)
dose: 75.0 mg/kg/injection, schedule: Q01DX001 (ip), vehicle: saline
  T/C: 88 % of control

## COC1=C(c2ccccc2)P(=O)(Cc2ccccc2)C2CCCC12 (stereo not drawn)
[3]
  T/C: 109 % of control
[6]
  T/C: 96 % of control
[9]
  T/C: 100 % of control

## O=[N+]([O-])c1ccc(Oc2ccccc2)c(S(=O)(=O)O)c1
[10]
  T/C: 103 % of control
[11]
  T/C: 94 % of control
[12]
  T/C: 97 % of control

## CS(=O)(=O)OC1C(N=[N+]=[N-])CN(C(=O)c2ccccc2)C1CCOC(=O)c1ccccc1 (stereo not drawn)
dose: 100.0 mg/kg/injection, schedule: Q01DX001 (ip), vehicle: saline with Tween-80
  T/C: 102 % of control
dose: 200.0 mg/kg/injection, schedule: Q01DX001 (ip), vehicle: saline with Tween-80
  T/C: 96 % of control
dose: 400.0 mg/kg/injection, schedule: Q01DX001 (ip), vehicle: saline with Tween-80
  T/C: 96 % of control

## Nc1ccc(N=Nc2ccccc2)cc1[N+](=O)[O-]
[10]
  T/C: 98 % of control
[11]
  T/C: 96 % of control
[12]
  T/C: 94 % of control

## CSc1ccc(C2NC(=O)NC2=O)cc1 (stereo not drawn)
dose: 50.0 mg/kg/injection, schedule: Q01DX001 (ip), vehicle: saline
  T/C: 102 % of control
dose: 100.0 mg/kg/injection, schedule: Q01DX001 (ip), vehicle: saline
  T/C: 100 % of control
dose: 200.0 mg/kg/injection, schedule: Q01DX001 (ip), vehicle: saline
  T/C: 96 % of control
dose: 400.0 mg/kg/injection, schedule: Q01DX001 (ip), vehicle: saline
  T/C: 102 % of control

## O=[N+]([O-])c1cccc(/C=N/Nc2nnc(N/N=C/c3cccc([N+](=O)[O-])c3)c3ccccc23)c1
dose: 50.0 mg/kg/injection, schedule: Q01DX001 (ip), vehicle: carboxymethylcellulose (CMC)
  T/C: 98 % of control
dose: 100.0 mg/kg/injection, schedule: Q01DX001 (ip), vehicle: carboxymethylcellulose (CMC)
  T/C: 98 % of control
dose: 200.0 mg/kg/injection, schedule: Q01DX001 (ip), vehicle: carboxymethylcellulose (CMC)
  T/C: 87 % of control
dose: 400.0 mg/kg/injection, schedule: Q01DX001 (ip), vehicle: carboxymethylcellulose (CMC)
  T/C: 93 % of control

## CC(=O)COc1cccc(Cl)c1
[3]
  T/C: 104 % of control
[6]
  T/C: 98 % of control
[9]
  T/C: 97 % of control

## O=C(Nc1ccccc1F)Oc1ccc(F)cc1
[1]
  T/C: 97 % of control
[2]
  T/C: 102 % of control and 91 % of control
dose: 100.0 mg/kg/injection, schedule: Q04DX002 (ip), vehicle: Klucel (hydroxypropylcellulose) (HPC)
  T/C: 101 % of control and 89 % of control
[4]
  T/C: 97 % of control
[5]
  T/C: 98 % of control and 109 % of control
dose: 200.0 mg/kg/injection, schedule: Q04DX002 (ip), vehicle: Klucel (hydroxypropylcellulose) (HPC)
  T/C: 96 % of control and 98 % of control
[7]
  T/C: 96 % of control
[8]
  T/C: 98 % of control and 107 % of control
dose: 400.0 mg/kg/injection, schedule: Q04DX002 (ip), vehicle: Klucel (hydroxypropylcellulose) (HPC)
  T/C: 101 % of control and 104 % of control

## COc1ccc([N+](=O)[O-])cn1
[10]
  T/C: 98 % of control
[11]
  T/C: 91 % of control
[12]
  T/C: 88 % of control

## O=[N+]([O-])c1ccc(Cl)c(CNc2ncnc3nc[nH]c23)c1
[10]
  T/C: 92 % of control
[11]
  T/C: 93 % of control
[12]
  T/C: 106 % of control

## O=C(Nc1ccc(F)c(Cl)c1)Oc1ccc(Br)cc1Br
dose: 100.0 mg/kg/injection, schedule: Q04DX002 (ip), vehicle: saline with Tween-80
  T/C: 100 % of control
dose: 200.0 mg/kg/injection, schedule: Q04DX002 (ip), vehicle: saline with Tween-80
  T/C: 107 % of control
dose: 400.0 mg/kg/injection, schedule: Q04DX002 (ip), vehicle: saline with Tween-80
  T/C: 100 % of control

## O=C(O)CCSSc1ccc([N+](=O)[O-])cc1[N+](=O)[O-]
dose: 12.5 mg/kg/injection, schedule: Q01DX009 (ip), vehicle: Klucel (hydroxypropylcellulose) (HPC)
  T/C: 96 % of control
dose: 12.5 mg/kg/injection, schedule: Q04DX003 (ip), vehicle: Klucel (hydroxypropylcellulose) (HPC)
  T/C: 98 % of control
dose: 25.0 mg/kg/injection, schedule: Q01DX009 (ip), vehicle: Klucel (hydroxypropylcellulose) (HPC)
  T/C: 99 % of control
dose: 25.0 mg/kg/injection, schedule: Q04DX003 (ip), vehicle: Klucel (hydroxypropylcellulose) (HPC)
  T/C: 107 % of control
dose: 50.0 mg/kg/injection, schedule: Q04DX003 (ip), vehicle: Klucel (hydroxypropylcellulose) (HPC)
  T/C: 105 % of control

## O=C(O)C(CSC(c1ccccc1)(c1ccccc1)c1ccccc1)N=Cc1cccs1 (stereo not drawn)
dose: 22.0 mg/kg/injection, schedule: Q01DX009 (ip), vehicle: saline
  T/C: 123 % of control
dose: 66.0 mg/kg/injection, schedule: Q01DX009 (ip), vehicle: saline with Tween-80
  T/C: 109 % of control
dose: 66.0 mg/kg/injection, schedule: Q01DX009 (ip), vehicle: saline
  T/C: 152 % of control and 214 % of control
dose: 150.0 mg/kg/injection, schedule: Q01DX009 (ip), vehicle: saline with Tween-80
  T/C: 98 % of control
dose: 150.0 mg/kg/injection, schedule: Q01DX009 (ip), vehicle: saline
  T/C: 104 % of control

## COc1ccc(NC2=NCCS2)cc1
dose: 50.0 mg/kg/injection, schedule: Q01DX009 (ip), vehicle: saline with Tween-80
  T/C: 95 % of control
dose: 100.0 mg/kg/injection, schedule: Q01DX009 (ip), vehicle: saline with Tween-80
  T/C: 95 % of control
dose: 200.0 mg/kg/injection, schedule: Q01DX009 (ip), vehicle: saline with Tween-80
  T/C: 96 % of control

## COC(=O)c1[nH]cnc1/N=N\N(CCF)CCF
dose: 1.5 mg/kg/injection, schedule: Q01DX009 (ip), vehicle: carboxymethylcellulose (CMC)
  T/C: 120 % of control
dose: 3.0 mg/kg/injection, schedule: Q01DX009 (ip), vehicle: carboxymethylcellulose (CMC)
  T/C: 110 % of control
dose: 4.5 mg/kg/injection, schedule: Q01DX001 (ip), vehicle: carboxymethylcellulose (CMC)
  T/C: 102 % of control
dose: 5.0 mg/kg/injection, schedule: Q01DX001 (ip), vehicle: carboxymethylcellulose (CMC)
  T/C: 101 % of control
dose: 9.0 mg/kg/injection, schedule: Q01DX001 (ip), vehicle: carboxymethylcellulose (CMC)
  T/C: 112 % of control
dose: 10.0 mg/kg/injection, schedule: Q01DX001 (ip), vehicle: carboxymethylcellulose (CMC)
  T/C: 115 % of control
dose: 12.0 mg/kg/injection, schedule: Q01DX009 (ip), vehicle: carboxymethylcellulose (CMC)
  T/C: 91 % of control
dose: 14.4 mg/kg/injection, schedule: Q01DX009 (ip), vehicle: carboxymethylcellulose (CMC)
  T/C: 169 % of control
dose: 18.0 mg/kg/injection, schedule: Q01DX009 (ip), vehicle: carboxymethylcellulose (CMC)
  T/C: 95 % of control
dose: 40.0 mg/kg/injection, schedule: Q01DX009 (ip), vehicle: carboxymethylcellulose (CMC)
  T/C: 97 % of control
dose: 53.0 mg/kg/injection, schedule: Q01DX001 (ip), vehicle: carboxymethylcellulose (CMC)
  T/C: 154 % of control
dose: 80.0 mg/kg/injection, schedule: Q01DX001 (ip), vehicle: carboxymethylcellulose (CMC)
  T/C: 171 % of control

## COCc1ccc(COC)cc1
dose: 100.0 mg/kg/injection, schedule: Q01DX009 (ip), vehicle: saline
  T/C: 96 % of control
dose: 100.0 mg/kg/injection, schedule: Q04DX003 (ip), vehicle: saline
  T/C: 103 % of control
dose: 200.0 mg/kg/injection, schedule: Q01DX009 (ip), vehicle: saline
  T/C: 95 % of control
dose: 200.0 mg/kg/injection, schedule: Q04DX003 (ip), vehicle: saline
  T/C: 108 % of control
dose: 400.0 mg/kg/injection, schedule: Q01DX009 (ip), vehicle: saline
  T/C: 98 % of control
dose: 400.0 mg/kg/injection, schedule: Q04DX003 (ip), vehicle: saline
  T/C: 100 % of control
